Measurements published in patent publication US20040176393A1, “Statin-MMP inhibitor combinations” (priority 1998, published 2004).

Key:
Type in all cases: biochemical
[1] = target: T1, MMP-2 (Gelatinase A) (Homo sapiens, UniProt P08253); assay: thiopeptolide substrate hydrolysis assay, MMP-2; conditions: inhibition of hydrolytic activity of the enzyme, read-out: IC50 MMP2
T1 sequence (P08253 110-660): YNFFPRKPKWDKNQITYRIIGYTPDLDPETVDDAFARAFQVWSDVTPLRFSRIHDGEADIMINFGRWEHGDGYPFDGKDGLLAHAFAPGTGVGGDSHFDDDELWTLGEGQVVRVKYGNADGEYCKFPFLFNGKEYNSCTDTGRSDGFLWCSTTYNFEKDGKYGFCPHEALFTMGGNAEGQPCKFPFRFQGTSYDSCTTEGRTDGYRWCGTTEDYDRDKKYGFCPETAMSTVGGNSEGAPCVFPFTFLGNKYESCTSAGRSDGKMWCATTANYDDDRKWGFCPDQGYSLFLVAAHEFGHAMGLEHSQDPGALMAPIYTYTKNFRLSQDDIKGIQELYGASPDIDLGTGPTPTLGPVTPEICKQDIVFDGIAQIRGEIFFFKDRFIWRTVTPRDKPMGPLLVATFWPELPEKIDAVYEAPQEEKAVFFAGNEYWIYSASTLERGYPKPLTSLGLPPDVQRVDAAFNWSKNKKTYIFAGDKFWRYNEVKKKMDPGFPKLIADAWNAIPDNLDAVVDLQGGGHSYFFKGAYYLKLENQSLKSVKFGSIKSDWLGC
Protocol: (§1) The assays measure the amount by which a test compound reduces the hydrolysis of a thiopeptolide substrate caused by a matrix metalloproteinase enzyme.
(§2) Thiopeptolide substrates show virtually no decomposition or hydrolysis in the absence of a matrix metalloproteinase enzyme. A typical thiopeptolide substrate commonly utilized for assays is Ac-Pro-Leu-Gly-thioester-Leu-Leu-Gly-OEt. […] Assays are carried out with and without matrix metalloproteinase inhibitor compounds, and the amount of hydrolysis is compared for a determination of inhibitory activity of the test compounds.

[2] = target: MMP-3 (stromelysin) (Homo sapiens, UniProt P08254); assay: thiopeptolide substrate hydrolysis assay, MMP-3; conditions: inhibition of hydrolytic activity of the enzyme, read-out: IC50 MMP3
Protocol: as §1, §2

[3] = target: T2, MMP-1 (interstitial collagenase) (Homo sapiens, UniProt P03956); assay: thiopeptolide substrate hydrolysis assay, MMP-1; conditions: inhibition of hydrolytic activity of the enzyme, read-out: IC50 MMP1
T2 sequence (P03956 100-469): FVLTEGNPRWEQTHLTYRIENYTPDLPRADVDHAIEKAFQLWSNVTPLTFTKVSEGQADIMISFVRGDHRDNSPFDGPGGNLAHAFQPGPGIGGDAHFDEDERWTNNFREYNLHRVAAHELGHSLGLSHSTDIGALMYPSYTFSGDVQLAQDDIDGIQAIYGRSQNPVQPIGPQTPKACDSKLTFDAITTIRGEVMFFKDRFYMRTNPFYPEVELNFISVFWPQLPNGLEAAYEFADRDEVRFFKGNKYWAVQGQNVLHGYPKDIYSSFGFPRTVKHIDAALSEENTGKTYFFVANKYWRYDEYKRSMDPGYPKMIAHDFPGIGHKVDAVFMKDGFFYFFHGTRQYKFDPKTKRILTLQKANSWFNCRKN
Protocol: as §1, §2

Chain of MMP-3 (stromelysin) (P08254 100-477, species assumed): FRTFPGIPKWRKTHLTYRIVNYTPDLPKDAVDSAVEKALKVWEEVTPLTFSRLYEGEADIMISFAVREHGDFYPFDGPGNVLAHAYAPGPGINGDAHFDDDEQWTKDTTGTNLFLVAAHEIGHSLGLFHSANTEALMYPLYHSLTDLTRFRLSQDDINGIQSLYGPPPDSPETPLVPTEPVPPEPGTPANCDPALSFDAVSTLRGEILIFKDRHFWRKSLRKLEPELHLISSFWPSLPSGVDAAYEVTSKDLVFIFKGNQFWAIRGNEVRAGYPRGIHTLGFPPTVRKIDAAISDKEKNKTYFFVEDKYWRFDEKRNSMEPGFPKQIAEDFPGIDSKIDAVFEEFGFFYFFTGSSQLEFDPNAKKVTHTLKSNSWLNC

Row | SMILES | IC50 [1] [nM] | IC50 [2] [nM] | IC50 [3] [nM]
1 | O=C(O)CCC(=O)c1ccc(N2CCN(c3ccccc3)CC2)cc1 [4-Oxo-4-[4-(4-phenyl-piperazin-1-yl)-phenyl]-butyric acid] | 1600 | 250 | 
2 | COc1ccc(N2CCN(c3ccc(S(=O)(=O)N[C@@H](Cc4ccccc4)C(=O)O)cc3)CC2)cc1 [(S)-2-{4-[-4-(4-Methoxy-phenyl)-piperazin-1-yl]-benzenesulfonylamino}-3-phenyl-propionic acid] | 33 | 14 | 
3 | CC(C)CC(CC(=O)NO)C(=O)N[C@@H](CC(C)C)C(=O)N[C@@H](Cc1ccccc1)C(N)=O (stereo partly shown) [U24522, reference compound] |  | 20 | 
4 | CN(C)N=C(CCC(=O)O)c1ccc(-c2ccc(Cl)cc2)cc1 [4-(4′-Chloro-biphenyl-4-yl)-4-(dimethylhydrazono)-butyric acid] | 730 | 930 | 
5 | N[C@@H](CC(=O)c1ccc2oc3ccccc3c2c1)C(=O)O [(S)-2-Amino-4-dibenzofuran-2-yl-4-oxo-butyric acid] | 3800 | 33000 | 
6 | CC(C)[C@H](NS(=O)(=O)c1ccc(-c2ccc([N+](=O)[O-])cc2)cc1)C(=O)O [(S)-3-Methyl-2-(4′-nitro-biphenyl-4-sulfonylamino)-butyric acid] |  | 100 | 
7 | CC(C)[C@H](NS(=O)(=O)c1ccc2oc3ccccc3c2c1)C(=O)O [(L)-2-(Dibenzofuran-2-sulfonylamino)-3-methyl-butyric acid] | 84 | 230 | 
8 | O=C(CCC(=O)c1ccc(N2CCC(c3ccccc3)CC2)cc1)NO [N-Hydroxy-4-oxo-4-[4-(4-phenyl-piperidin-1-yl)-phenyl]-butyramide] | 40 | 20 | 
9 | O=C(O)[C@H](Cc1ccccc1)NS(=O)(=O)c1ccc2oc3ccccc3c2c1 [(L)-2-(Dibenzofuran-2-sulfonylamino)-3-phenyl-propionic acid] | 890 | 720 | 
10 | O=C(O)CCC(=NO)c1ccc(-c2ccc(Br)cc2)cc1 [4-(4′-Bromo-biphenyl-4-yl)-4-hydroxyimino-butyric acid] | 58 | 110 | 
11 | O=C(O)[C@H](CCc1ccccc1)NS(=O)(=O)c1ccc2oc3ccccc3c2c1 [(S)-2-(Dibenzofuran-2-sulfonylamino)-4-phenyl-butyric acid] | 265 | 460 | 
12 | O=C(O)[C@H](Cc1ccccc1)NS(=O)(=O)c1ccc(N2CCC(Cc3ccccc3)CC2)cc1 [(S)-2-[4-(4-Benzyl-piperidin-1-yl)-benzenesulfonyl-amino]-3-phenyl-propionic acid] | 88 | 21 | 
13 | O=C(CCc1ccccc1)N[C@@H](CC(=O)c1ccc2oc3ccccc3c2c1)C(=O)O [(S)-4-Dibenzofuran-2-yl-4-oxo-2-(3-phenyl-propionylamino)-butyric acid] | 96 | 280 | 
14 | O=C(O)CCC(=NO)c1ccc(-c2ccc(Cl)cc2)cc1 [4-(4′-Chloro-biphenyl-4-yl)-4-hydroxyimino-butyric acid] | 390 | 120 | 
15 | O=C(C[C@H](NC(=O)C(F)(F)F)C(=O)O)c1ccc2oc3ccccc3c2c1 [(S)-4-Dibenzofuran-2-yl-4-oxo-2-(2,2,2-trifluoroacetylamino)-butyric acid] | 720 | 1330 | 
16 | CC(C)C[C@H](NS(=O)(=O)c1ccc2oc3ccccc3c2c1)C(=O)O [(L)-2-(Dibenzofuran-2-sulfonylamino)-4-methyl-pentanoic acid] | 320 | 1180 | 
17 | O=C(O)CCC(=O)c1ccc(N2CCC(c3ccccc3)CC2)cc1 [4-Oxo-4-[4-(4-phenyl-piperidin-1-yl)-phenyl]-butyric acid] | 1300 | 140 | 
18 | O=C(O)[C@H](Cc1ccccc1)NS(=O)(=O)c1ccc(-c2ccc(Br)cc2)cc1 [(S)-2-(4′-Bromo-biphenyl-4-sulfonylamino)-3-phenyl-propionic acid] | 26 |  | 
19 | O=C(O)[C@H](CSC(c1ccccc1)(c1ccccc1)c1ccccc1)NS(=O)(=O)c1ccc2oc3ccccc3c2c1 [(L)-2-(Dibenzofuran-2-sulfonylamino)-3-tritylsulfanyl-propionic acid] | 9400 | 14400 | 
20 | O=C(O)[C@H](CS)NS(=O)(=O)c1ccc2oc3ccccc3c2c1 [(L)-2-(Dibenzofuran-2-sulfonylamino)-3-mercapto-propionic acid] | 4450 | 690 | 
21 | O=C(Cc1ccccc1)N[C@@H](CC(=O)c1ccc2oc3ccccc3c2c1)C(=O)O [(S)-4-Dibenzofuran-2-yl-4-oxo-2-phenylacetylamino-butyric acid] | 84 | 330 | 
22 | CNC(=O)[C@@H](NC(=O)[C@@H](CC(=O)NO)CC(C)C)C(C)(C)C [RO-31-9790, reference compound] | 6 | 470 | 5.5
23 | O=C(O)CNS(=O)(=O)c1ccc(N2CCC(c3ccccc3)CC2)cc1 [[4-(4-Phenyl-piperidin-1-yl)-benzenesulfonylamino]-acetic acid] | 210 | 20 | 
24 | CC(=O)N[C@@H](CC(=O)c1ccc2oc3ccccc3c2c1)C(=O)O [(S)-2-Acetylamino-4-dibenzofuran-2-yl-4-oxo-butyric acid] | 160 | 1550 | 
25 | O=C(O)CCC(O)c1ccc(-c2ccc(Cl)cc2)cc1 (racemic) [(±)-4-(4′-Chloro-biphenyl-4-yl)-4-hydroxy-butyric acid] | 150 | 280 | 
26 | O=C(CNS(=O)(=O)c1ccc(N2CCC(c3ccccc3)CC2)cc1)NO [N-Hydroxy-2-[4-(4-phenyl-piperidin-1-yl)-benzene-sulfonylamino]-acetamide] | 810 | 19 | 
27 | O=C(O)[C@H](Cc1ccccc1)NS(=O)(=O)c1ccc(N2CCC(c3ccccc3)CC2)cc1 [(S)-3-Phenyl-2-[4-(4-phenyl-piperidin-1-yl)-benzene-sulfonylamino]-propionic acid] | 220 | 14 | 
